According to PubChem BioAssay AID248 (DTP/NCI, 2004):
“And” between values parts separate entries of the source, which are not always exact repeats. Equal entries are not always repeated. Toxic doses and inconclusive results are not listed. Cut-off read from the data, not from the text of the source: active = T/C of 150% or more; inactive = T/C below 125%.

System: L1210 leukemia ip in BDF1 mice, survival T/C
Experiment: NCI In Vivo Anticancer Drug Screen. Data for tumor model L1210 Leukemia (intraperitoneal) in B6D2F1 (BDF1) mice
Conditions: endpoint: mean survival time, higher = longer survival
Outline: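 Transplanted-tumor mice were given test agent; controls received vehicle only. Survival readings from the two groups were divided (treated over control).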

[1] = dose: 100.0 mg/kg/injection, schedule: Q04DX003 (ip), vehicle: Klucel (hydroxypropylcellulose) (HPC)
[2] = dose: 200.0 mg/kg/injection, schedule: Q04DX003 (ip), vehicle: Klucel (hydroxypropylcellulose) (HPC)
[3] = dose: 400.0 mg/kg/injection, schedule: Q04DX003 (ip), vehicle: Klucel (hydroxypropylcellulose) (HPC)
[4] = dose: 100.0 mg/kg/injection, schedule: Q01DX001 (ip), vehicle: Klucel (hydroxypropylcellulose) (HPC)
[5] = dose: 100.0 mg/kg/injection, schedule: Q01DX009 (ip), vehicle: Klucel (hydroxypropylcellulose) (HPC)
[6] = dose: 100.0 mg/kg/injection, schedule: Q04DX002 (ip), vehicle: Klucel (hydroxypropylcellulose) (HPC)
[7] = dose: 200.0 mg/kg/injection, schedule: Q01DX001 (ip), vehicle: Klucel (hydroxypropylcellulose) (HPC)
[8] = dose: 200.0 mg/kg/injection, schedule: Q01DX009 (ip), vehicle: Klucel (hydroxypropylcellulose) (HPC)
[9] = dose: 200.0 mg/kg/injection, schedule: Q04DX002 (ip), vehicle: Klucel (hydroxypropylcellulose) (HPC)
[10] = dose: 400.0 mg/kg/injection, schedule: Q01DX001 (ip), vehicle: Klucel (hydroxypropylcellulose) (HPC)
[11] = dose: 400.0 mg/kg/injection, schedule: Q01DX009 (ip), vehicle: Klucel (hydroxypropylcellulose) (HPC)
[12] = dose: 400.0 mg/kg/injection, schedule: Q04DX002 (ip), vehicle: Klucel (hydroxypropylcellulose) (HPC)
[13] = dose: 100.0 mg/kg/injection, schedule: Q01DX009 (ip), vehicle: saline
[14] = dose: 100.0 mg/kg/injection, schedule: Q04DX003 (ip), vehicle: saline
[15] = dose: 200.0 mg/kg/injection, schedule: Q01DX009 (ip), vehicle: saline
[16] = dose: 200.0 mg/kg/injection, schedule: Q04DX003 (ip), vehicle: saline
[17] = dose: 400.0 mg/kg/injection, schedule: Q01DX009 (ip), vehicle: saline
[18] = dose: 400.0 mg/kg/injection, schedule: Q04DX003 (ip), vehicle: saline
[19] = dose: 100.0 mg/kg/injection, schedule: Q01DX001 (ip), vehicle: carboxymethylcellulose (CMC)
[20] = dose: 200.0 mg/kg/injection, schedule: Q01DX001 (ip), vehicle: carboxymethylcellulose (CMC)
[21] = dose: 400.0 mg/kg/injection, schedule: Q01DX001 (ip), vehicle: carboxymethylcellulose (CMC)
[22] = dose: 50.0 mg/kg/injection, schedule: Q01DX009 (ip), vehicle: saline with Tween-80
[23] = dose: 100.0 mg/kg/injection, schedule: Q01DX009 (ip), vehicle: saline with Tween-80
[24] = dose: 200.0 mg/kg/injection, schedule: Q01DX009 (ip), vehicle: saline with Tween-80
[25] = dose: 100.0 mg/kg/injection, schedule: Q04DX002 (ip), vehicle: saline
[26] = dose: 100.0 mg/kg/injection, schedule: Q01DX001 (ip), vehicle: saline
[27] = dose: 200.0 mg/kg/injection, schedule: Q01DX001 (ip), vehicle: saline
[28] = dose: 200.0 mg/kg/injection, schedule: Q04DX002 (ip), vehicle: saline
[29] = dose: 400.0 mg/kg/injection, schedule: Q04DX002 (ip), vehicle: saline

Measured: T/C

CCOC(=O)c1c(Cl)c(Cl)c(C(=O)OCC)c(Cl)c1Cl
inactive: dose: 100.0 mg/kg/injection, schedule: Q01DX009 (ip), vehicle: saline sonified 101 % of control | [1] 101 % of control | dose: 200.0 mg/kg/injection, schedule: Q01DX009 (ip), vehicle: saline sonified 97 % of control | [2] 95 % of control | dose: 400.0 mg/kg/injection, schedule: Q01DX009 (ip), vehicle: saline sonified 95 % of control | [3] 92 % of control

O=C(Nc1ccccc1F)OCc1ccco1
inactive: [4] 99 % of control | [5] 95 % of control and 102 % of control | [6] 102 % of control and 106 % of control | [7] 99 % of control | [8] 95 % of control and 91 % of control | [9] 106 % of control and 118 % of control | [10] 94 % of control | [11] 98 % of control and 102 % of control | [12] 96 % of control and 104 % of control

O=C1OC2C(I)C3CCC2C1C3 (configuration not stated)
inactive: [13] 98 % of control | [14] 102 % of control | [15] 102 % of control | [16] 105 % of control | [17] 98 % of control | [18] 98 % of control

O=c1[nH]c(/C=C/c2ccccc2)c(S(=O)(=O)N2CCCCC2)c(=O)[nH]1
inactive: [4] 93 % of control | [7] 87 % of control | [10] 93 % of control

CCS(=O)(=O)c1ccc(NC(=O)OC(C)(c2ccccc2)C2CCCCC2)cc1 (configuration not stated)
inactive: [19] 96 % of control | [20] 91 % of control | [21] 100 % of control

CCOC(=O)C(CC)c1nc2ccccc2o1 (configuration not stated)
inactive: [22] 109 % of control | [23] 100 % of control | [24] 95 % of control | dose: 400.0 mg/kg/injection, schedule: Q01DX009 (ip), vehicle: saline with Tween-80 94 % of control

O=C(NC1CCCCC1)Oc1ccc(-c2ccccc2)cc1Cl
inactive: [5] 101 % of control | [1] 111 % of control | [8] 107 % of control | [2] 104 % of control | [11] 98 % of control | [3] 98 % of control

CC(N)C(=O)NC(C(=O)O)C(C)O (configuration not stated)
inactive: dose: 25.0 mg/kg/injection, schedule: Q04DX002 (ip), vehicle: saline 98 % of control | dose: 50.0 mg/kg/injection, schedule: Q04DX002 (ip), vehicle: saline 121 % of control | [25] 113 % of control

CCC1([N+](=O)[O-])COP(N)(=O)OC1 (configuration not stated)
inactive: dose: 5.0 mg/kg/injection, schedule: Q01DX001 (ip), vehicle: saline 105 % of control | dose: 10.0 mg/kg/injection, schedule: Q01DX001 (ip), vehicle: saline 107 % of control | dose: 20.0 mg/kg/injection, schedule: Q01DX001 (ip), vehicle: saline 124 % of control | dose: 40.0 mg/kg/injection, schedule: Q01DX001 (ip), vehicle: saline 100 % of control | dose: 80.0 mg/kg/injection, schedule: Q01DX001 (ip), vehicle: saline 96 % of control

CCOC(=O)C(CC(=O)c1ccccc1)C(C)=O (configuration not stated)
inactive: [22] 97 % of control | [23] 93 % of control | [24] 97 % of control

O=[N+]([O-])c1cc(N(c2ccccc2)c2ccccc2)cc([N+](=O)[O-])c1
inactive: [19] 103 % of control | [20] 108 % of control | [21] 103 % of control

O=C1OC(=O)C2C3c4ccccc4C(c4ccccc43)C12 (configuration not stated)
inactive: dose: 25.0 mg/kg/injection, schedule: Q01DX009 (ip), vehicle: saline 103 % of control | dose: 50.0 mg/kg/injection, schedule: Q01DX009 (ip), vehicle: saline 98 % of control | dose: 50.0 mg/kg/injection, schedule: Q04DX003 (ip), vehicle: saline 96 % of control | [26] 98 % of control | [13] 114 % of control | [1] 103 % of control | [14] 98 % of control | [27] 88 % of control | [2] 90 % of control

NC1CC(=O)NC1=O (configuration not stated)
inactive: [25] 93 % of control | [28] 100 % of control | [29] 100 % of control

O=C(O)CN(CC(=O)O)c1ccc(/C=C/c2ccc(N(CC(=O)O)CC(=O)O)c(S(=O)(=O)O)c2)cc1S(=O)(=O)O
inactive: [13] 100 % of control | [14] 112 % of control | [15] 105 % of control | [16] 100 % of control | [17] 103 % of control | [18] 100 % of control

Cc1cccc(N2CCN(CC(O)COc3cccc4ccccc34)CC2)c1 (configuration not stated)
inactive: [26] 95 % of control | [27] 98 % of control | dose: 400.0 mg/kg/injection, schedule: Q01DX001 (ip), vehicle: saline 95 % of control

CCOC(=O)N1C=Cn2c(cnc2C)C1OC (configuration not stated)
inactive: dose: 50.0 mg/kg/injection, schedule: Q01DX009 (ip), vehicle: water 93 % of control | dose: 100.0 mg/kg/injection, schedule: Q01DX009 (ip), vehicle: water 98 % of control | dose: 200.0 mg/kg/injection, schedule: Q01DX009 (ip), vehicle: water 95 % of control and 86 % of control

CN(C)C(=O)Sc1c(Cl)cc(S(=O)(=O)F)cc1Cl
inactive: [8] 105 % of control

Nc1ccc(F)c(Cl)c1
inactive: [25] 121 % of control | [28] 98 % of control | [29] 105 % of control

O=C(O)C(O)CBr (configuration not stated)
inactive: dose: 12.5 mg/kg/injection, schedule: Q01DX009 (ip), vehicle: saline with Tween-80 103 % of control | dose: 25.0 mg/kg/injection, schedule: Q01DX009 (ip), vehicle: saline with Tween-80 95 % of control | [22] 98 % of control

CCSP(=S)(SCC)SCC
inactive: dose: 75.0 mg/kg/injection, schedule: Q04DX003 (ip), vehicle: Klucel (hydroxypropylcellulose) (HPC) 94 % of control | dose: 150.0 mg/kg/injection, schedule: Q04DX003 (ip), vehicle: Klucel (hydroxypropylcellulose) (HPC) 92 % of control | dose: 300.0 mg/kg/injection, schedule: Q04DX003 (ip), vehicle: Klucel (hydroxypropylcellulose) (HPC) 120 % of control

CCN(CC)Cc1ccccc1COC(=O)c1ccc(Br)cc1
inactive: [6] 101 % of control | [9] 108 % of control | [12] 101 % of control

ClCCCCOCBr
inactive: [22] 97 % of control | [23] 104 % of control | [24] 95 % of control

CC(C)CNS(=O)(=O)c1ccc(Cl)c([N+](=O)[O-])c1
inactive: [1] 99 % of control | [2] 97 % of control | [3] 106 % of control

O=C(CSc1cc(Cl)c(Cl)cc1Cl)Nc1cccc(Cl)c1
inactive: dose: 100.0 mg/kg/injection, schedule: Q01DX001 (ip), vehicle: saline with Tween-80 95 % of control | dose: 200.0 mg/kg/injection, schedule: Q01DX001 (ip), vehicle: saline with Tween-80 98 % of control | dose: 400.0 mg/kg/injection, schedule: Q01DX001 (ip), vehicle: saline with Tween-80 90 % of control
